From the supplement of paper PMC8671470

Tests used:
Conditions in all cases: 72 h
[1] = tested on: MV4-11
How it was run: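 Each of fifteen myeloid leukaemia cell lines was seeded in RPMI 1640 at a density titrated to its linear growth range. The cells were incubated for 72 h at 37 °C and 5% CO2 with compounds at five tenfold doses from 1 to 10,000 nM, in duplicate. After ATP luminescence was normalised to vehicle and to a positive control at 10 µM, four-parameter log-logistic curves were fitted. These curves gave the IC50.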

[2] = tested on: HL-60; test: cell viability (% survival relative to DMSO control); higher = less cytotoxic
How it was run: (§1)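 Area under the curve, where listed, was derived from four-parameter log-logistic fits with drc and PharmacoGx. These fits used CellTiter-Glo viability from HL-60 cells in RPMI 1640 with 10% FBS, normalised to DMSO wells and wells holding 10 μM proteasome inhibitor. The full library was rescreened on 384-well plates in duplicate at five tenfold concentrations, 1–10,000 nM, with DMSO or 100 nM of one of three metabolic inhibitors, for 72 h at 37 °C, 5% CO2.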

[3] = tested on: BV-173; test: cell viability (% survival relative to DMSO control, bortezomib = 0%); higher = less cytotoxic
How it was run: (§2)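 Percent survival figures are means of duplicate wells. They were obtained by CellTiter-Glo luminescence after 10 AML and 5 CML cell lines spent 72 h at 37 °C with 5% CO2 in 384-well plates with compounds at 1, 10, 100, 1000 or 10000 nM. Vehicle was set to 100% and a 10 µM positive control to 0%.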

[4] = tested on: HEL; test: as above
How it was run: as §2

[5] = tested on: HL-60; test: as above
How it was run: as §2

[6] = tested on: K-562; test: as above
How it was run: as §2

[7] = tested on: KCL-22; test: as above
How it was run: as §2

[8] = tested on: KG-1; test: as above
How it was run: as §2

[9] = tested on: KU-812; test: as above
How it was run: as §2

[10] = tested on: LAMA-84; test: as above
How it was run: as §2

[11] = tested on: ML-2; test: as above
How it was run: as §2

[12] = tested on: MOLM-13; test: as above
How it was run: as §2

[13] = tested on: MV4-11; test: as above
How it was run: as §2

[14] = tested on: Mono-Mac-6; test: as above
How it was run: as §2

[15] = tested on: NOMO-1; test: as above
How it was run: as §2

[16] = tested on: SHI-1; test: as above
How it was run: as §2

[17] = tested on: THP-1; test: as above
How it was run: as §2

[18] = tested on: HL-60; test: area under dose-response curve (viability, 1 nM-10 uM) (fraction (0-1)); higher = more sensitive
How it was run: as §1

CCC(=O)N1CCN(c2ccc(-n3c(=O)ccc4cnc5ccc(-c6cnc7ccccc7c6)cc5c43)cc2C(F)(F)F)CC1 [Torin1]
Conditions | IC50 (cell viability) [µM]
[1] | 0.486

cell viability [%], [2]
Conditions | 0.001 µM | 0.01 µM | 0.1 µM | 1 µM | 10 µM
co-treatment: AZD3965 100 nM | 105 | 100 | 91.3 | 99 | 51.4
co-treatment: DMSO vehicle | 97.9 | 102.1 | 93.4 | 101 | 65.4
co-treatment: GSK2194069 100 nM | 106 | 106 | 92.1 | 104.4 | 72.7
co-treatment: pictilisib 100 nM | 100 | 104 | 80 | 85.8 | 65.5

Conditions | area under dose-response curve, co-treatment: AZD3965 100 nM | area under dose-response curve, co-treatment: DMSO vehicle | area under dose-response curve, co-treatment: GSK2194069 100 nM | cell viability, 1 nM [%] | cell viability, 10 nM [%] | cell viability, 100 nM [%] | cell viability, 1000 nM [%] | cell viability, 10000 nM [%]
[3] | – | – | – | 111 | 80.7 | 89.1 | 20.9 | 8.44
[4] | – | – | – | 109 | 105 | 99.3 | 36.4 | 14.7
[5] | – | – | – | 73.2 | 95.1 | 85.7 | 65.3 | 24.6
[6] | – | – | – | 108 | 87 | 85.9 | 24.7 | 11.7
[7] | – | – | – | 102 | 110 | 87.8 | 10.9 | 8.17
[8] | – | – | – | 94.9 | 89.7 | 81.5 | 29.1 | 26
[9] | – | – | – | 97.7 | 87.1 | 73.1 | 24.4 | 20.1
[10] | – | – | – | 105 | 93.1 | 80.2 | 28.8 | 21.8
[11] | – | – | – | 96.1 | 99.7 | 91.5 | 46.5 | 33.5
[12] | – | – | – | 93 | 77.8 | 70 | 16.2 | 12.9
[13] | – | – | – | 88.9 | 95.7 | 90.8 | 26.1 | 11.1
[14] | – | – | – | 92.2 | 85.5 | 75.8 | 35.7 | 21.7
[15] | – | – | – | 109 | 96.2 | 93.4 | 47.5 | 37.1
[16] | – | – | – | 89.8 | 92 | 80.2 | 48.9 | 69.4
[17] | – | – | – | 104 | 98.5 | 96.9 | 58.9 | 33.9
[18] | 0.0362 | < 0.0301 | < 0.0301 | – | – | – | – | –

O=C(O)c1cc(Cl)cc(Cl)c1O [3,5-Dichlorosalicylic Acid]
Conditions | IC50 (cell viability) [µM]
[1] | > 10

cell viability [%], [2]
Conditions | 0.001 µM | 0.01 µM | 0.1 µM | 1 µM | 10 µM
co-treatment: AZD3965 100 nM | 107 | 98.5 | 99.4 | 101 | 101
co-treatment: DMSO vehicle | 104 | 105 | 101 | 106 | 101
co-treatment: GSK2194069 100 nM | 97.6 | 97 | 95.56 | 97.5 | 102
co-treatment: pictilisib 100 nM | 80.1 | 93.1 | 100 | 107 | 103

Conditions | area under dose-response curve, co-treatment: AZD3965 100 nM | area under dose-response curve, co-treatment: DMSO vehicle | area under dose-response curve, co-treatment: GSK2194069 100 nM | area under dose-response curve, co-treatment: pictilisib 100 nM | cell viability, 1 nM [%] | cell viability, 10 nM [%] | cell viability, 100 nM [%] | cell viability, 1000 nM [%] | cell viability, 10000 nM [%]
[3] | – | – | – | – | 107 | 86.1 | 119 | 106 | 106
[4] | – | – | – | – | 102 | 111 | 98.6 | 111 | 104
[5] | – | – | – | – | 106 | 136 | 84.5 | 117 | 93.5
[6] | – | – | – | – | 107 | 125 | 104 | 111 | 90.9
[7] | – | – | – | – | 105 | 140 | 87 | 94.7 | 85.9
[8] | – | – | – | – | 107 | 107 | 85.6 | 117 | 96.8
[9] | – | – | – | – | 90.5 | 93.7 | 95.8 | 109 | 87.3
[10] | – | – | – | – | 105 | 87.4 | 97.5 | 103 | 92
[11] | – | – | – | – | 97.4 | 99.8 | 95.6 | 107 | 93.1
[12] | – | – | – | – | 92 | 112 | 83.9 | 110 | 91.7
[13] | – | – | – | – | 96 | 106 | 91.3 | 104 | 88.3
[14] | – | – | – | – | 106 | 102 | 93.7 | 107 | 89.7
[15] | – | – | – | – | 93.9 | 94.9 | 88.1 | 105 | 98.7
[16] | – | – | – | – | 110 | 105 | 98.4 | 111 | 90
[17] | – | – | – | – | 95.3 | 93.3 | 87.7 | 96.7 | 98.8
[18] | < 0.0301 | < 0.0301 | < 0.0301 | < 0.0301 | – | – | – | – | –

COc1ccc(C(=O)Nc2c(Cl)cncc2Cl)cc1OC1CCCC1 [Piclamilast]
Conditions | IC50 (cell viability) [µM]
[1] | > 10

cell viability [%], [2]
Conditions | 0.001 µM | 0.01 µM | 0.1 µM | 1 µM | 10 µM
co-treatment: AZD3965 100 nM | 104 | 104 | 95.5 | 105 | 107
co-treatment: DMSO vehicle | 101 | 100.9 | 98.4 | 97.54 | 104.6
co-treatment: GSK2194069 100 nM | 101.3 | 100 | 98.8 | 97.1 | 109.3
co-treatment: pictilisib 100 nM | 107 | 107 | 96.4 | 95.35 | 106

Conditions | area under dose-response curve, co-treatment: AZD3965 100 nM | area under dose-response curve, co-treatment: DMSO vehicle | area under dose-response curve, co-treatment: GSK2194069 100 nM | area under dose-response curve, co-treatment: pictilisib 100 nM | cell viability, 1 nM [%] | cell viability, 10 nM [%] | cell viability, 100 nM [%] | cell viability, 1000 nM [%] | cell viability, 10000 nM [%]
[3] | – | – | – | – | 86.3 | 107 | 92.1 | 114 | 99.7
[4] | – | – | – | – | 95.3 | 108 | 102 | 119 | 109
[5] | – | – | – | – | 87.1 | 103 | 65.2 | 87.5 | 115
[6] | – | – | – | – | 90.5 | 111 | 90.7 | 108 | 83.1
[7] | – | – | – | – | 95.3 | 101 | 92.7 | 102 | 108
[8] | – | – | – | – | 97.7 | 102 | 86 | 99.2 | 104
[9] | – | – | – | – | 91.4 | 94.6 | 90 | 105 | 99.1
[10] | – | – | – | – | 87.5 | 114 | 91.2 | 110 | 103
[11] | – | – | – | – | 84.4 | 104 | 102 | 88.2 | 110
[12] | – | – | – | – | 89.2 | 110 | 67.4 | 103 | 88.1
[13] | – | – | – | – | 92.5 | 110 | 92.8 | 118 | 114
[14] | – | – | – | – | 93.6 | 107 | 80.6 | 100 | 87.7
[15] | – | – | – | – | 87.1 | 104 | 94.6 | 97.1 | 110
[16] | – | – | – | – | 94.1 | 105 | 106 | 99.3 | 113
[17] | – | – | – | – | 94 | 104 | 97.6 | 102 | 109
[18] | < 0.0301 | < 0.0301 | < 0.0301 | < 0.0301 | – | – | – | – | –
